From patent USRE37781E1, “Substituted cyclic carbonyls and derivatives thereof useful as retroviral protease inhibitors” (DuPont Pharmaceuticals Company, priority 1991, dated 2002)
Converted amounts (≈) assume the structure as drawn. Where two headings read alike, the source gives them in different places.

Assays:
[1] = system: HIV-1 (RF) in MT-2 cells; experiment: microbe, parasite or virus in culture; type: cell-based
Procedure: DNA Plasmids and in vitro RNA transcripts:
Plasmid pDAB 72 containing both gag and pol sequences of BH10 (bp 113-1816) cloned into PTZ 19R was prepared according to Erickson-Viitanen et al. AIDS Research and Human Retroviruses 1989, 5, 577. The plasmid was linearized with Bam HI prior to the generation of in vitro RNA transcripts using the Riboprobe Gemini system II kit (Promega) with T7 RNA polymerase. Synthesized RNA was purified by treatment with RNase free DNAse (Promega), phenol-chloroform extraction, and ethanol precipitation. RNA transcripts were dissolved in water, and stored at −70° C. The concentration of RNA was determined from the A260.
Biotinylated capture probes were purified by HPLC after synthesis on an Applied Biosystems (Foster City, Calif.) DNA synthesizer by addition of biotin to the 5′ terminal end of the oligonucleotide, using the biotin-phosphoramidite reagent of Cocuzza, Tet. Lett. 1989, 30, 6287. The gag biotinylated capture probe (5-biotin-[…] 3′) was complementary to nucleotides 889-912 of HXB2 and the pol biotinylated capture probe (5′-biotin-[…] 3′) was complementary to nucleotides 2374-2395 of HXB2. Alkaline phosphatase conjugated oligonucleotides used as reporter probes were prepared by Syngene (San Diego, Calif.). The pol reporter probe (5′ […] 3′) was complementary to nucleotides 2403-2425 of HXB2. The gag reporter probe (5′ […] 3′) was complementary to nucleotides 950-973 of HXB2. All nucleotide positions are those of the GenBank Genetic Sequence Data Bank as accessed through the Genetics Computer Group Sequence Analysis Software Package (Devereau Nucleic Acids Research 1984, 12, 387). The reporter probes were prepared as 0.5μM stocks in 2× SSC (0.3M NaCl, 0.03M sodium citrate), 0.05M Tris pH 8.8, 1 mg/mL BSA. The biotinylated capture probes were prepared as 10 μM stocks in water.
Streptavidin coated plates:
Nunc-immunomodule microtiter plate strips were coated by addition of 200 μL of streptavidin (30 ug/mL, Scripps, La Jolla, Calif.) in freshly prepared 10 mM sodium carbonate (pH 9.6). Plates were incubated overnight at 4° C. Streptavidin solution was aspirated from the wells and a blocking buffer composed of phosphate buffered saline (PBS), 20 mg/mL bovine serum albumin (crystalline, nuclease and protease free, Calbiochem) and 100 mg/mL lactose (Sigma) was added to the plates for 3 hrs at room temperature. Blocking buffer was removed from the wells, which were allowed to dry overnight at room temperature and subsequently stored at 4° C. in zip lock bags with desiccant. For the majority of the compound evaluation experiments, streptavidin coated plates were obtained from Du Pont Biotechnology Systems (Boston, Mass.).
MT-2, CEM, and H9 cells were maintained in RPMI 1640 supplemented with 5% fetal calf serum (FCS), 2 mM L-glutamine and 50 μg/mL gentamycin, all from Gibco. Laboratory strains of HIV-1 (RF, MN and IIIB) were propagated in H9 cells in the same medium. Virus stocks were prepared approximately 1 month after acute infection of H9 cells by clarification of the tissue culture medium and storage of aliquots at −70° C. […] Each aliquot of virus stock used for infection was thawed only once. In some cases, infected H9 cells were shifted to Dulbecco's modified Eagle's medium 3-10 days before collection of virus in order to generate virus stocks in medium with low biotin content. Clinical isolates of HIV that had been passaged once in MT-2 cells were used to infect fresh MT-2 cells in RPMI medium. Three days after infection, cells were pelleted, resuspended and culture continued in Dulbecco's modified Eagle's medium as above. Virus stocks of clinical isolates were prepaid 10-15 days after infection when cytopathic effects were apparent in the culture.

[2] = target: single-chain tethered dimer of HIV protease (Human immunodeficiency virus 1, UniProt P04585); experiment: biochemical; type: biochemical; set-up: fused on or other part: A second copy of the same protease unit is joined to the first by a short peptide tether, giving one polypeptide
Procedure: HIV Protease Inhibition Assay—HPLC Method
Active protease was prepared as described therein by extraction with 67% acetic acid, dilution 33-fold with water, dialysis against water and then against a “refolding buffer” consisting of 20 mM MES, 1 mM dithiothreitol and 10% glycerol. Protease was stored as a stock preparation at 10 uM in refolding buffer.
Substrate: Peptide of sequence: aminobenzoyl-Ala-Thr-His-Gln-Val-Tyr-Phe(NO2)-Val-Arg-Lys-Ala containing p-nitrophenylalanine, was prepared by solid phase synthesis as previously described Cheng et al., op.cit. Stock solutions of 2 mM substrate were prepared in DMSO.
Inhibitory compounds were dissolved in sufficient DMSO to make 3 mM stock solutions. All further dilutions were prepared in “assay buffer”: 1M NaCl, 50 mM MES, pH 5.5, 1 mM EDTA, 1 mM DTT, […] glycerol.
Enzyme reaction: In a 2 ml screw-cap centrifuge tube were added 50 ul protease (final concentration 0.25 nM) and 0.1 ml inhibitory compound (final concentration […]). After 15 min preincubation at room temperature, the reaction was started with the addition of 0.05 ml substrate (final concentration 5 uM). Incubation was carried out at 30 C. for 1 hr. The reaction was stopped with 1 ml 0.1M ammonium hydroxide.
HPLC measurement of product formation: The product (aminobenzoyl-Ala-Thr-His-Gln-Val-Tyr) was separated from substrate on a Pharmacia MonoQ anion exchange column. The injection volume was 0.2 ml. The mobile phases were: A (20 mM trisHCl, pH 9.0, 0.02% sodium Azide, 10% acetonitrile), B (20 mM tris HCl, pH 9.0, 0.02% sodium azide, 0.5M ammonium formate, 10% acetonitrile). The mobile phases were pumped at 1 ml/min, with a gradient from 0 to 30% B in 5 min, 100% B for 4 min to wash the column, and a re-equilibration for 4 min. The retention time of the product was 3.6 min. Detection with a Shimadzu model RF535 fluorescence monitor was at 330 nm (excitation) and 430 (emission).

[3] = Human immunodeficiency virus 1, MT2, 48 h, Table 2d, class symbols, read-out: IC90
[4] = read-out: HPLC K1, Table 2d, class symbols
[5] = Table 2d, HIV protease inhibition, HPLC method, read-out: HPLC K1
[6] = Table 2d, class symbols, read-out: HPLC K1

O=C1N(Cc2ccc(C(O)CO)cc2)C(Cc2ccccc2)C(O)C(O)C(Cc2ccccc2)N1Cc1ccc(C(O)CO)cc1 (centres unmarked) [11L] was tested, and the IC90 [1, 3] was under 10 µg/mL and the Ki [2, 4] was under 10 nM.

Compound O=S1(=O)N(Cc2cccc(OCc3ccccc3)c2)C(Cc2ccccc2)C(O)C(O)C(Cc2ccccc2)N1Cc1cccc(OCc2ccccc2)c1 (centres unmarked) [Example 23C] has an IC90 ([1]; Human immunodeficiency virus 1, MT2, Table 2m, read-out: IC90) of 10 to 100 µg/mL (≈ 13.2 to 132 µM) and a Ki ([2]; read-out: HPLC Ki, Table 2m) of 10 to 1000 nM.

O=C1N(CCCCCCCO)C(Cc2ccccc2)C(O)C(O)C(Cc2ccccc2)N1CCCCCCCO (centres unmarked) [Example 12P] gave an IC90 [1, 3] of under 10 µg/mL and a Ki [2, 4] of 10 to 1000 nM.

CC(=O)c1cccc(CN2C(=O)N(Cc3cccc(C(C)=O)c3)C(Cc3ccc(F)cc3)C(O)C(O)C2Cc2ccc(F)cc2)c1 (centres unmarked) [20N] was tested, and the IC90 ([1]; Table 2i) was “+++ (+++=<10 μg/mL)” and the Ki ([2]; Table 2i, read-out: HPLC Ki) was under 10 nM.

In the case of O=C1N(Cc2cccc([N+](=O)[O-])c2)C(Cc2ccccc2)C(O)C(O)C(Cc2ccccc2)N1CC1CC1 (centres unmarked) [15H], the IC90 [1, 3] is reported as under 10 µg/mL and the Ki [2, 4] is reported as under 10 nM.

With O=C1N(Cc2cccc(CCO)c2)C(Cc2ccccc2)C(O)C(O)C(Cc2ccccc2)N1Cc1cccc(CCO)c1 (centres unmarked) [15DX] the IC90 ([1]; Table 2d, HIV RNA assay) was “+++ (+++=<10 μg/mL)” and the Ki [2, 5] was under 10 nM.

For O=C1N(Cc2ccc(CO)o2)C(Cc2ccccc2)C(O)C(O)C(Cc2ccccc2)N1Cc1ccc(CO)o1 (centres unmarked) [Example 13X], the IC90 [1, 3] was over 100 µg/mL and the Ki [2, 4] was 10 to 1000 nM.

For COC(=O)CCCCCN1C(=O)N(CCCCCC(=O)O)C(Cc2ccccc2)C(O)C(O)C1Cc1ccccc1 (centres unmarked) [Example 12I], the IC90 ([1]; Table 2d, class symbols) was “+ (+=>100 μg/mL)” and the Ki [2, 6] was under 10 nM.

With NC(=O)c1cc(CN2C(=O)N(Cc3ccc(F)c(C(N)=NO)c3)C(Cc3ccccc3)C(O)C(O)C2Cc2ccccc2)ccc1F (centres unmarked) [15EH] the IC90 ([1]; Table 2d, HIV RNA assay) was “+++ (+++=<10 μg/mL)” and the Ki [2, 5] was under 10 nM.

In the case of CC(=NO)c1cccc(CN2C(=O)N(Cc3cccc(C(C)=NO)c3)C(Cc3ccc(F)cc3)C(O)C(O)C2Cc2ccc(F)cc2)c1 (centres unmarked) [20U], the IC90 ([1]; Human immunodeficiency virus 1, MT2, Table 2i, read-out: IC90) is reported as under 10 µg/mL and the Ki ([2]; read-out: HPLC Ki, Table 2i) is reported as under 10 nM.

With O=C1N(CCCCCNC(=S)Nc2ccccc2)C(Cc2ccccc2)C(O)C(O)C(Cc2ccccc2)N1CCCCCNC(=S)Nc1ccccc1 (centres unmarked) [15EW] the IC90 ([1]; Table 2d, HIV RNA assay) was “++/+ (The ++/+ is used in the cases where an IC90 was determined to be >50 μg/mL)” and the Ki [2, 5] was 10 to 1000 nM.

In the case of O=C1N(Cc2ccc(CCl)cc2)[C@H](CCc2ccccc2)[C@@H](O)[C@@H](Cc2ccccc2)N1Cc1ccc(CCl)cc1 [Example 8J], the Ki ([2]; read-out: Ki (HPLC), Table 1e, cells marked (HPLC)) is reported as 10 to 1000 nM.

In the case of O=C1NC(Cc2ccccc2)C(O)C(O)C(Cc2ccccc2)N1CC1CC1CCO (centres unmarked) [Example 12Z], the Ki [2, 6] is reported as 10 to 1000 nM.

Work on O=C1N(Cc2ccccc2)C(Cc2ccc3ccccc3c2)C(O)C(O)C(Cc2ccc3ccccc3c2)N1Cc1ccccc1 (centres unmarked) [16K] yielded a Ki ([2]; Table 2e, read-out: K4 HPLC) of under 10 nM.

Work on C=CCCCC1C(O)C(O)C(CCCC=C)N(CC=C)C(=O)N1CC=C (centres unmarked) [Example 16AR] yielded a Ki ([2]; Table 2e, read-out: K4 HPLC) of over 1000 nM.
